# Results published in patent US20060258713A1, “Treatment of pain” (Wyeth, priority 2005, published 2006).
# System: Male Sprague-Dawley rats
# Experiment: L5 spinal nerve ligation (SNL) tactile allodynia model, von Frey thresholds
# Type: in vivo, rat
# Conditions: 0.3, 1 or 3 mg/kg i.p., thresholds up to 60, 180 and 300 minutes after dosing, reversal of tactile allodynia, FIG. 1
# Description: Compound 1, (7-(2,6-dichlorophenyl)-5-fluoro-2,3-dihydrobenzofuran-2-yl)methanamine, was obtained from Wyeth compound repository and gabapentin was purchased from Toronto Research Chemicals (Ontario, Canada) and […]. Compound 1 was dissolved in sterile saline and gabapentin was suspended in 2% Tween 80 in 0.5% methylcellulose and sterile water. All compounds were administered intraperitoneally (i.p.).
# Male Sprague-Dawley rats (125-150 g, Harlan; Indianapolis, Ind.) were individually housed on bedding. For all studies animals were maintained in climate-controlled rooms on a 12-hour light/dark cycle (lights on at 0630) with food and water available ad libitum. […]
# Assessment of Tactile Allodynia (Tactile Sensitivity): Tactile thresholds were assessed using a series of calibrated von Frey monofilaments (Stoelting; Wood Dale, Ill.). The threshold that produced a 50% likelihood of a withdrawal was determined using the up-down method, as previously described (Chaplan et al., 1994).
# Animals were placed in elevated wire cages and allowed 45-60 minutes to acclimate to the testing room. […] The lowest force that evoked a brisk withdrawal response to the stimuli determined the pain threshold. Tactile thresholds were determined on the day prior to surgery and rats with baseline thresholds <10 g force were excluded from studies. […]
compound,measurement,value
"NCC1Cc2cc(F)cc(-c3c(Cl)cccc3Cl)c2O1 (stereo not shown) [Compound 1, (7-(2,6-dichlorophenyl)-5-fluoro-2,3-dihydrobenzofuran-2-yl)methanamine]",effectiveness in the tactile allodynia model,effectiveness
